The text below walks through data of patent US20220354949A1, “NOVEL COMPOUNDS” (XENIOPRO GmbH, priority 2018, published 2022).

Molecules are shown by their SMILES.

Format in all cases: cell-based
For experiment [1], the system named is TANOUE cells (human B cell leukemia cells). In words: Proliferation assay (alamarBlue) with TANOUE cells. As to conditions: Homo sapiens, B-cell, compound at 20 μM, Table 63 (novel compounds), read-out: Activity Range: weighted arithmetic mean (AVEw) of normalized fluorescence intensity relative to DMSO basis level 1.0. The text has this: (§1) The antiproliferative activities of compounds falling under formula (Ia), (Ib) and (Ic), respectively, were investigated on cells or cell lines originating from a disorder of the haematopoietic system, including the myeloid cell compartment and the lymphoid cell compartment (T-cells and B-cells), the neuroendocrine system, the cervix, the breast, the ovaries, the lung, the gastrointestinal tract, and the mucosal epithelium, as well as from the skin epithelium and from the muscle. To this end, HL-60 cells, NB-4 cells, HH cells, RPMI-8402 cells, TANOUE cells, TT cells, HeLa cells, MDA-MB-231 cells, FU-OV-1 cells, LOU-NH91 cells, 23132/87 cells, CAL-27 cells, BHY cells, SCC-25 cells, A-431 cells, human primary epidermal keratinocytes (HPEK), and C2C12 cells were seeded into 96-well plates suitable for fluorescence assays (CORNING #3598) at following initial cell numbers: 1000 cells per well for HL-60; 1000 cells per well for NB-4; 5000 cells per well for HH; 5000 cells per well for RPMI-8402; 1500 cells per well for TANOUE; 9000 cells per well for TT; 2000 cells per well for HeLa; 3000 cells per well for MDA-MB-231; 3000 cells per well for FU-OV-1; 4000 cells per well for LOU-NH91; 2000 cells per well for 23132/87; 2000 cells per well for CAL-27; 1500 cells per well for BHY; 1500 cells per well for SCC-25; 700 cells per well for A-431; 1000 cells per well for HPEK; 500 cells per well for C2C12. The cells were treated with compounds at indicated final concentrations (diluted from the 1000× stock-solutions in DMSO to a final DMSO concentration of 0.1% v/v in H2O (Water For Injection, WFI, Fisherscientific #10378939)) or with the empty carrier DMSO at 0.1% v/v as control for 5 days. At day 5 after starting the treatments the cells were subjected to the alamarBlue® Proliferation Assay (Bio-Rad Serotec GmbH, BUF012B) according to the protocol of the manufacturer. The readout was taken with a multi-well plate-reader in the fluorescence mode with applying a filter for excitation at 560 nm (band width 10 nm) and for emission at 590 nm (band width 10 nm). Control treatments for growth inhibition with commercial compounds such as Methotrexate (MTREX) and Resveratrol (RES) were included on every plate. Some of the test compounds of the present invention were obtained and applied as their salts. According cases are indicated in the column “Specification” in Table 55 to Table 92 and by their sum formula in Table 93.
(§2) The assays were performed in duplicate or more replicates of independent single experiments each containing a six-fold replicate for every condition. For every individual plate, the measured fluorescence intensity values of the conditions with compound treatment were normalized against the corresponding equally weighted arithmetic mean of the fluorescence intensity values of the six DMSO treated control wells in order to obtain the relative values to a baseline level of 1.0.
(§3) Two independent outlier analyses were performed according to the methods by Peirce and Chauvenet (Ross, Journal of Engineering Technology 2003, 1-12). Outliers confirmed by at least one of the methods were excluded from the calculations but not more than one value out of six per compound within a single experiment. The weighted arithmetic mean (here abbreviated as AVEw) for each compound was calculated from the normalized values over all independent replicates of the single experiments comprising the six replicates each. The corresponding standard deviation for the weighted arithmetic mean was calculated according to the method described by Bronstein et al. (Bronstein, Semendjajew, Musiol, Müihlig, Taschenbuch der Mathematik, 5th edition 2001 (German), publisher: Verlag Harri Deutsch, Frankfurt am Main and Thun) and was combined with the Gauß' error propagation associated with the performed calculation for the normalization. The resulting standard deviation is herein referred to as “combined standard deviation”. […]

The subject of experiment [2] is MDA-MB-231 cells (human breast carcinoma cells). Kind of experiment: Proliferation assay (alamarBlue) with MDA-MB-231 cells. As to conditions: Homo sapiens, compound at 20 μM, Table 69 (novel compounds), read-out: Activity Range: weighted arithmetic mean (AVEw) of normalized fluorescence intensity relative to DMSO basis level 1.0.
Source text: as §1, §2, §3
A general note: The colour change of resazurin is a common sign of viable cells or microbes.

Experiment [3] has as its system Notch signaling (human Notch1 receptor, hNotch1ΔE, CSL luciferase reporter in HeLa cells). In words: Notch reporter assay (dual luciferase, HeLa cells transfected with hNotch1ΔE). To be noted: compounds and controls at 10 μM. The text has this:
The activation level of Notch signaling can be quantified in vitro reliably by measuring the expression levels of Notch specific target genes. This can be accomplished by the quantification of corresponding mRNA or protein of a particular Notch target gene. Alternatively, cells can be genetically modified to carry a luciferase gene as an artificial Notch target gene, which is expressed in dependence of Notch activity. In this setting, Notch signaling levels can be quantified by measuring the luciferase-derived bioluminescence values.
An according Notch-reporter assay, i.e. a luciferase-based luminescence readout, was used here to quantify the ability of the claimed compounds to augment Notch signaling in a cellular system. […] After 24 hours of transfection, the transfected cells were carefully detached from the dish using 0.5 mM EDTA in PBS and seeded into 96-well plates suitable for luminescence readouts (CORNING, #3610) at 10′000 cells per well. […] Directly after the lysis, first the Firefly and then the Renilla luciferase values were measured consecutively from the same well with a luminescence reader immediately after applying 15 μL per well each of the corresponding enzyme substrates needed to create the luminescence signals (Promega, Dual-Luciferase® Reporter Assay System, #E1910). […]

Experiment [4] has as its system HH cells (human cutaneous T-cell lymphoma cells). In words: Proliferation assay (alamarBlue) with HH cells. As to conditions: 20 μM, relative to DMSO basis level 1.0, Table 60 (compounds disclosed in PCT/EP2018/054686).
Source text: as §1, §2, §3

As for `NC1(c2ccc(Oc3ccc(C45CC6CC(CC(C6)C4)C5)cc3)nc2)COC1` [XPW-3052], the activity at 20 µM in experiment [1] was 70 to 80%; in experiment [2], 60 to 70%.

Consider `O=C(c1ccc(Oc2ccc(C3CCCCC3)cc2)nc1)N1CCOCC1` [XPW-2890, (6-(4-cyclohexylphenoxy)pyridin-3-yl)(morpholino)methanone], for which the figures for the activity at 20 µM in experiment [1] and in experiment [2] were 70 to 80% and 40 to 60%, respectively.

For `C[C@H](NC(=O)Cc1cc(F)cc(F)c1)C(=O)N[C@H](C(=O)OC(C)(C)C)c1ccccc1` [DAPT], the “Activity Range: weighted arithmetic mean (AVEw) of double-normalized Notch-reporter luminescence, relative to DMSO basis level of 1.0” value in experiment [3] was 0.1 ± 0.0.

For the compound `CN(O)C(c1ccc(Oc2ccc(C34CC5CC(CC(C5)C3)C4)cc2)cc1)C(F)(F)F` (stereo not shown) [XPW-0182, N-(1-(4-(4-((3r,5r,7r)-adamantan-1-yl)phenoxy)phenyl)-2,2,2-trifluoroethyl)-N-methyl hydroxylamine], the activity at 20 µM in experiment [1] and in experiment [2] was 40 to 60% each time.

On to `CN(C)C(C#N)c1ccc(Oc2ccc(C3CCCCC3)cc2)cc1` (stereo not shown) [XPW-0314, 2-(4-(4-cyclohexylphenoxy)phenyl)-2-(dimethylamino)acetonitrile], for which, in experiment [3], the “Activity Range: weighted arithmetic mean (AVEw) of double-normalized Notch-reporter luminescence, relative to DMSO basis level of 1.0” value is given as 2.0 ≤ AVEw. For the same compound, the activity at 20 µM in experiment [1] lay within 40 to 60%.

With `CN(C(c1ccc(Oc2ccc(C34CC5CC(CC(C5)C3)C4)cc2)cc1)C(F)(F)F)[S+]([O-])C(C)(C)C` (stereo not shown) [XPW-4642, N-(1-(4-(4-((3r,5r,7r)-adamantan-1-yl)phenoxy)phenyl)-2,2,2-trifluoroethyl)-N,2-dimethylpropane-2-sulfinamide], the activity at 20 µM in experiment [2] is 60 to 70%.

For the compound `CN(C)C(c1ccc(Oc2ccc(C34CC5CC(CC(C5)C3)C4)cc2)cc1)C(F)(F)F` (stereo not shown) [XPW-0042, 1-(4-(4-((3r,5r,7r)-adamantan-1-yl)phenoxy)phenyl)-2,2,2-trifluoro-N,N-dimethylethan-1-amine], the activity at 20 µM in experiment [1] and in experiment [2] was 80 to 90% in each case.

Regarding `COCCc1ccc(Oc2ccc(C(=O)N(C)O)cc2)cc1` [XPW-0675, N-hydroxy-4-(4-(2-methoxyethyl)phenoxy)-N-methylbenzamide], the activity at 20 µM in experiment [1] and in experiment [2] was 40 to 60% in each case.

On to `NS(=O)(=O)C#Cc1ccccc1` [PES], for which the “Activity Range: weighted arithmetic mean (AVEw) of normalized fluorescence intensity, proliferation assay with HH cells” value in experiment [4] is 0.6 ± 0.1.

On to `N#CN=C(N)c1ccc(Oc2ccc(C3CCCCC3)cc2)nc1` [XPW-0832, N′-cyano-6-(4-cyclohexylphenoxy)nicotinimidamide], for which the activity at 20 µM in experiment [1] and in experiment [2] was 70 to 80% throughout.

With `CC(C)(C)[S+]([O-])NC(c1ccc(Oc2ccc(C34CC5CC(CC(C5)C3)C4)cc2)cc1)C(F)(F)F` (stereo not shown) [XPW-0902, N-(1-(4-(4-((3r,5r,7r)-adamantan-1-yl)phenoxy)phenyl)-2,2,2-trifluoroethyl)-2-methylpropane-2-sulfinamide], the activity at 20 µM in experiment [1] and in experiment [2] was 0 to 20% each time.
